# Measured values from patent US8343536B2, “Biofilm-inhibiting medical products” (Cook Biotech Incorporated, priority 2007, dated 2013).
# How the values were obtained:
# S. aureus (ATCC #25983) = test: Zone-of-inhibition after ethylene oxide or E-beam sterilization of coated SIS discs (Example 4); type: cell-based
# Method: BisEDT was obtained from Microbion, Inc. as previously described. Small intestinal submucosa (SIS) was obtained and processed into 4-layer lyophilized sheets as described in Example 1. The sheets were subsequently cut into 15 mm discs (˜1.76 cm^2) using a disc punch. BisEDT was resuspended in dimethyl sulfoxide (DMSO) and diluted to appropriate concentrations for coating. Discs were coated with the BisEDT solution at a final concentration of 0.35 μg/μl using 50 μl of the solution per disc for a final concentration of 10 μg/cm^2. The discs were subsequently placed in a lyophilizer overnight to remove the DMSO solvent. For the ethylene oxide sterilization compatibility experiment, 6 discs were coated with 10 μg/cm^2 BisEDT and packaged into 2 separate tyvek pouches with 3 discs per pouch. One pouch was placed in a drawer until use and left non-sterile and the other pouch was sterilized with low temperature ethylene oxide sterilization. For the E-beam sterilization, essentially the same process was performed except the discs were packaged in foil pouches and the samples were subjected to E-beam sterilization with a dose of ˜25 kGy. S. aureus (ATCC #25983) was used as the bacteria for this experiment. Bacteria was grown in Tryptic Soy Broth for 16-24 hours before placing a lawn on Tryptic Soy Agar in 100 mm Petri dishes. […]
# mice = test: Mouse subcutaneous implant method, in vivo angiogenesis and tolerability of BisEDT coated SIS (Example 7); details: 10 or 100 μg/cm^2 on SIS, 3 weeks
# Method: The Example was performed to compare the in vivo angiogenic response to SIS compared to 2 levels of BisEDT coated SIS. The model used to detect in vivo angiogenesis was the mouse subcutaneous implant method as generally described by Heeschen et al., Nat. Med. […]; 7:833-9.
# BisEDT was obtained from Microbion, Inc. as previously described. All SIS based grafts were made from 4-layer lyophilized sheets as described in the previous Examples. Sample groups consisted of this material coated with 10 μg/cm^2 BisEDT or 100 μg/cm^2 BisEDT. Each material was cut into ten 15 mm discs. Nylon filters with 0.22 μm pores were sewn on to the top and bottom of each disc. Low temperature ethylene oxide sterilization was used for each sample.
# Samples were implanted subcutaneously into the dorsal flanks of mice. After anesthesia using Ketamine (87 mg/kg) and Xylazine (13 mg/kg), a small incision was made on the posterior neck of the mouse and a dorsal subcutaneous cavity was created using blunt dissection with hemostats. This was followed by sample placement and closure of the incision with 4 interrupted stitches of 5-0 suture. Six mice per group underwent disc implantation. The implant remained in the mice for a period of 3 weeks followed by probing for capillary formation.
# Mice were sacrificed using a double dose of anesthesia to ensure intact flow in vasculature. While the heart was still beating, the chest cavity was exposed, vena cava severed, and 10 ml of heparized saline injected into the left ventricle using a 23 ga butterfly infusion set to exsanguinate the mouse. After transferring syringes (while maintaining infusion needle in left ventricle), 4 ml of a fluorescent microsphere (yellow-green, 0.1 μm diameter, Molecular Probes, F-8803) suspension (1:20 dilution of stock suspension) was injected through the left ventricle resulting in perfusion of the entire vasculature. Care was taken to ensure no bubbles were introduced during the injections, as bubbles will cause micro-emboli obstructing consistent perfusion. […]
substance,measurement,setting,value
"bismuth-1,2-ethanedithiol [BisEDT]","Zone-of-inhibition, visual","S. aureus (ATCC #25983); S. aureus, 10 μg/cm^2 on SIS disc, sterilized (ethylene oxide or E-beam ~25 kGy) and non-sterile",effectiveness at creating a zone-of-inhibition
same,Compatibility with sterilization technique,"S. aureus (ATCC #25983); ethylene oxide vs E-beam (~25 kGy), zone-of-inhibition against S. aureus compared visually",E-beam sterilization exhibited greater compatibility with BisEDT than ethylene oxide sterilization
same,Angiogenic potential of coated SIS,mice,neither level of BisEDT (10 or 100 μg/cm^2) coated onto the SIS affected the angiogenic potential
same,Local toxicity at explant,mice,no visual evidence of local toxicity at explant
same,Systemic toxicity,mice,no observed symptoms of systemic toxicity
